Legend:
Type in all cases: in vivo
[1] = system: Hubbard broiler/breeder hens; assay: Egg and chick production by broiler/breeder hens fed L-DOPA-supplemented diet (Example 1); details: for Fertility (%): eggs laid that are fertile; for Egg production (%): eggs/day/100 hens, 50 mg/kg body weight in feed; for Hatch/Fertile (%): fertile eggs that hatch / fertile eggs laid; for Chick Production (%): product of egg production, fertility and hatch/fertile percentages
Protocol: 20 Hubbard broiler/breeder hens and 4 roosters at 57 weeks of age were separated into two groups of 10 hens and two roosters. One group was fed a control (untreated) diet and the second group was fed the same diet supplemented with 50 mg/kg body weight of L-DOPA for 10 weeks. This was followed by a 3-4 week rest period and then treatment was initiated for another 3 weeks (retreatment).
(§1) Beginning with week 6 of treatment, eggs from treated hens were incubated and hatched. The progeny were then followed for seven to eight weeks to assess weight gain and feeding efficiency. Egg production percentage is in terms of eggs/day/100 hens. The fertility percentage is the number of eggs laid that are fertile. The hatch/fertile ratio is the number of fertile eggs that hatch divided by the number of fertile eggs laid. The chick production percentage is the product of the egg production, fertility, and hatch/fertile percentages.

[2] = system: progeny chicks of broiler/breeder hens; assay: Feeding efficiency of progeny chicks hatched from eggs of L-DOPA treated breeder hens
Protocol: As used herein, “feeding efficiency” is defined as the ratio of the weight of feed necessary to achieve one weight unit in broiler/breeder hens.
as §1
The progeny chicks hatched from eggs laid by the control and L-DOPA treated breeder hens were evaluated for feeding efficiency, as described above.
Progeny Group 1: 8 week feed conversions; Week […] of treatment in broiler breeders
Progeny Group 2: 8 week feed conversions; Week 7 of treatment in broiler breeders
Progeny Group 3: 8 week feed conversions; Week 8 of treatment in broiler breeders
Progeny Group 4: 7 week feed conversions; Week 9 of treatment in broiler breeders
Progeny Group 5: 6 week feed conversions; Week 10 of treatment in broiler breeders

broiler/breeder hens = assay: Egg laying by broiler breeder hens following handling and transfer stress (Example 2); details: for number of eggs laid: ten hens/group, 50 mg/day/kg body weight in food
Protocol: 58 week old broiler/breeder hens were obtained from a commercial private breeder when they were laying at a rate of approximately 54% (54 eggs/day/100 hens; 38 eggs/week/10 hens). […] L-DOPA was added to the feed of the treatment group of breeder hens at a dosage of 50 mg/day/kg body weight; none was added to the feed of the control group. Egg laying was monitored daily for 9 weeks in the treated and control group.

N[C@@H](Cc1ccc(O)c(O)c1)C(=O)O [L-DOPA, L-Dihydroxyphenylalanine]
average percentage egg production versus control hens ([1]; FIG. 1, over an eight week period): greater
cumulative egg production versus control hens ([1]; FIG. 2, nine week period, L-DOPA-supplemented feed): significantly higher
percentage egg production versus control hens during re-treatment ([1]; FIG. 3, three weeks of re-treatment following three weeks without L-DOPA): increase
average weekly egg production versus control hens ([1]; FIGS. 1 and 2, L-DOPA-supplemented feed 50 mg/kg body weight): significantly higher
higher rates of hatching of fertile eggs over eggs from control hens ([1]; eggs set for incubation during weeks 7, 8 and 10 of treatment): 15%
Fertility (%) ([1]; mean of weeks 7, 8, 10): 92%
Egg production (%) ([1]; mean of weeks 7, 8, 10): 64%
Hatch/Fertile (%) ([1]; mean of weeks 7, 8, 10): 84%
Chick Production (%) ([1]; mean of weeks 7, 8, 10): 51%
Fertility (%) ([1]; week 7 of treatment): 84%
Egg production (%) ([1]; week 7 of treatment): 71%
Hatch/Fertile (%) ([1]; week 7 of treatment): 75%
Chick Production (%) ([1]; week 7 of treatment): 45%
Fertility (%) ([1]; week 8 of treatment): 100%
Egg production (%) ([1]; week 8 of treatment): 58%
Hatch/Fertile (%) ([1]; week 8 of treatment): 90%
Chick Production (%) ([1]; week 8 of treatment): 52%
Fertility (%) ([1]; week 10 of treatment): 92%
Egg production (%) ([1]; week 10 of treatment): 62%
Hatch/Fertile (%) ([1]; week 10 of treatment): 86%
Chick Production (%) ([1]; week 10 of treatment): 55%
overall gain in chick production over the control groups ([1]; weeks 7, 8 and 10 of treatment): 76%
Final feeding efficiency of progeny ([2]; Average of progeny groups 1-5): 2.05 pounds of feed consumed per pound of body weight gained
Final feeding efficiency of progeny ([2]; Progeny Group 1: 8 week feed conversions, Week 8 of treatment in broiler breeders): 1.99 pounds of feed consumed per pound of body weight gained
Final feeding efficiency of progeny ([2]; Progeny Group 2: 8 week feed conversions, Week 7 of treatment in broiler breeders): 2.07 pounds of feed consumed per pound of body weight gained
Final feeding efficiency of progeny ([2]; Progeny Group 3: 8 week feed conversions, Week 8 of treatment in broiler breeders): 1.98 pounds of feed consumed per pound of body weight gained
Final feeding efficiency of progeny ([2]; Progeny Group 4: 7 week feed conversions, Week 9 of treatment in broiler breeders): 2.07 pounds of feed consumed per pound of body weight gained
Final feeding efficiency of progeny ([2]; Progeny Group 5: 6 week feed conversions, Week 10 of treatment in broiler breeders): 2.12 pounds of feed consumed per pound of body weight gained
average increase in feeding efficiency of progeny relative to control birds ([2]; progeny hatched from eggs during weeks 6-10 of treatment): 6%
number of eggs laid (broiler/breeder hens; Total of weeks 1-9 after handling and transfer stress): 327
recovery time to achieve the same egg laying productivity rate as before the stress (broiler/breeder hens; control hens: two months): one month
total number of eggs laid greater than that of untreated controls (broiler/breeder hens; nine weeks following the moving stress): 31%
number of eggs laid (broiler/breeder hens; week 1 after handling and transfer stress): 10
number of eggs laid (broiler/breeder hens; week 2 after handling and transfer stress): 29
number of eggs laid (broiler/breeder hens; week 3 after handling and transfer stress): 34
number of eggs laid (broiler/breeder hens; week 4 after handling and transfer stress): 41
number of eggs laid (broiler/breeder hens; week 5 after handling and transfer stress): 39
number of eggs laid (broiler/breeder hens; week 6 after handling and transfer stress): 50
number of eggs laid (broiler/breeder hens; week 7 after handling and transfer stress): 41
number of eggs laid (broiler/breeder hens; week 8 after handling and transfer stress): 40
number of eggs laid (broiler/breeder hens; week 9 after handling and transfer stress): 43

Reference: patent publication US6509375B1, “Method for increasing productivity in breeder hens” (Cyncron Corporation, priority 1999, dated 2003)
